# Source: US11141444B2, “Lactobacillus crispatus KBL693 strain and use thereof” (KO Biolabs, Inc., priority 2018, dated 2021)
# Test system: RBL-2H3 cells
# Experiment: Inhibition of degranulation (β-hexosaminidase co-secreted with histamine) in RBL-2H3 cells
# Assay type: cell-based
# Settings: RBL-2H3, IgE + DNP-HAS induced degranulation; 120 μL culture supernatant or ketotifen 20 μg/mL; negative control (Siraganian buffer) = 1.0
# From the text: It has been reported that, in an allergic reaction, histamine is expressed in tissues, causing an inflammatory reaction, and suppressing histamine secretion leads to alleviation of allergic symptoms by blocking the reaction by histamine. The present invention attempted to select probiotic strains that can show effects on the alleviation and treatment of allergic reactions through inhibition of histamine secretion. To this end, a total of eight Lactobacillus strains derived from human vagina were evaluated for the ability to suppress histamine secretion. […]
# To identify the activity of β-hexosaminidase, 25 μL of the supernatant collected in Example 1-3 was transferred to each well of a 96-well plate, and then 25 μL of each substrate (p-nitrophenyl N-acetyl-D-[…]) was added thereto, and followed by a reaction at 37° C. in the 5% CO2 incubator for 90 minutes. Then, 200 μL of stop solution (Na2CO3/NaHCO3) was added to stop the reaction and then absorbance was measured at 405 nm. The absorbance when treated with each type of Lactobacillus crispatus was compared to the negative control group and converted to percentage to show the level of inhibition of the degranulation.
compound,measurement,value
"CN1CCC(=C2c3ccccc3CC(=O)c3sccc32)CC1 [Ketotifen, ketotifen]",β-hexosaminidase (fold change),0.2569 fold change
